Data published in patent US8431565B2 (priority 2007, dated 2013).

Each compound was assayed against T1, rat CB2 receptor (rCB2) (Rattus norvegicus, UniProt Q9QZN9).
T1 sequence (Q9QZN9 1-360): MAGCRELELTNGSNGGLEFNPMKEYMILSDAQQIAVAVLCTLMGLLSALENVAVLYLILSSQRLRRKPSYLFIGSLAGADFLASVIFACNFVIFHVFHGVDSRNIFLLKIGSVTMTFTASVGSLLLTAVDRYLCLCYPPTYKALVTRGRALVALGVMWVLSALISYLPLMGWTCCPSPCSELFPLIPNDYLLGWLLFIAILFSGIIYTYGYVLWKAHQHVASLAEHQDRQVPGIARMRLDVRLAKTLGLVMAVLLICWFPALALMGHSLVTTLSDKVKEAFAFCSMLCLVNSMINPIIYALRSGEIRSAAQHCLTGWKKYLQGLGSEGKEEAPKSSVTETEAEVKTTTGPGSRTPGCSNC

Row | Structure (SMILES) | EC50 [µM]
1 | CNC(=O)[C@@H](NC(=O)c1nc(-c2ccccc2)n2c1CN(S(=O)(=O)c1ccccc1[N+](=O)[O-])CC2)C(C)(C)C [Compound 97, (S)-N-(3,3-dimethyl-1-(methylamino)-1-oxobutan-2-yl)-7-(2-nitrophenylsulfonyl)-3-phenyl-5,6,7,8-tetrahydroimidazo[1,5-a]pyrazine-1-carboxamide] | 0.01 to 0.1
2 | CNC(=O)[C@@H](NC(=O)c1nc(-c2ccccc2)n2c1CN(S(=O)(=O)c1ccccc1F)CC2)C(C)(C)C [Compound 98, (S)-N-(3,3-dimethyl-1-(methylamino)-1-oxobutan-2-yl)-7-(2-fluorophenylsulfonyl)-3-phenyl-5,6,7,8-tetrahydroimidazo[1,5-a]pyrqazine-1-carboxamide] | 0.01 to 0.1
3 | CNC(=O)[C@@H](NC(=O)c1nc(-c2ccccc2)n2c1CN(S(=O)(=O)C1CC1)CC2)C(C)(C)C [Compound 100, (S)-7-(cyclopropylsulfonyl)-N-(3,3-dimethyl-1-(methylamino)-1-oxobutan-2-yl)-3-phenyl-5,6,7,8-tetrahydroimidazo[1,5-a]pyrazine-1-carboxamide] | 0.01 to 0.1
4 | CC(C)(C)CNC(=O)c1nc(-c2ccccc2)n2c1CN(S(=O)(=O)c1ccc(F)cc1)CC2 [Compound 103, 7-(4-fluorophenylsulfonyl)-N-neopentyl-3-phenyl-5,6,7,8-tetrahydroimidazo[1,5-a]pyrazine-1-carboxamide] | 0.01 to 0.1
5 | CC(C)(C)CNC(=O)c1nc(-c2ccccc2)n2c1CN(S(=O)(=O)c1ccccc1)CC2 [Compound 104, N-neopentyl-3-phenyl-7-(phenylsulfonyl)-5,6,7,8-tetrahydroimidazo[1,5-a]pyrazine-1-carboxamide] | 0.01 to 0.1
6 | CNC(=O)[C@@H](NC(=O)c1nc(-c2ccccc2)n2c1CN(S(=O)(=O)c1ccc(Cl)cc1)CC2)C(C)(C)C [Compound 106, (S)-7-(4-chlorophenylsulfonyl)-N-(3,3-dimethyl-1-(methylamino)-1-oxobutan-2-yl)-3-phenyl-5,6,7,8-tetrahydroimidazo[1,5-a]pyrazine-1-carboxamide] | 0.01 to 0.1
7 | CNC(=O)[C@@H](NC(=O)c1nc(-c2ccccc2)n2c1CN(S(=O)(=O)c1ccc(C(F)(F)F)cc1)CC2)C(C)(C)C [Compound 107, (S)-N-(3,3-dimethyl-1-(methylamino)-1-oxobutan-2-yl)-3-phenyl-7-(4-(trifluoromethyl)phenylsulfonyl)-5,6,7,8-tetrahydroimidazo[1,5-a]pyrazine-1-carboxamide] | 0.01 to 0.1
8 | CNC(=O)[C@@H](NC(=O)c1nc(-c2ccccc2)n2c1CN(S(=O)(=O)c1ccc(C#N)cc1)CC2)C(C)(C)C [Compound 108, (S)-7-(4-cyanophenylsulfonyl)-N-(3,3-dimethyl-1-(methylamino)-1-oxobutan-2-yl)-3-phenyl-5,6,7,8-tetrahydroimidazo[1,5-a]pyrazine-1-carboxamide] | 0.01 to 0.1
9 | CNC(=O)[C@@H](NC(=O)c1nc(-c2ccsc2)n2c1CN(S(=O)(=O)c1ccc(F)cc1)CC2)C(C)(C)C [Compound 109, (S)-N-(3,3-dimethyl-1-(methylamino)-1-oxobutan-2-yl)-7-(4-fluorophenylsulfonyl)-3-(thiophen-3-yl)-5,6,7,8-tetrahydroimidazo[1,5-a]pyrazine-1-carboxamide] | 0.01 to 0.1
10 | CCS(=O)(=O)N1CCn2c(-c3ccccc3)nc(C(=O)NC3C4(C)CCC(C4)C3(C)C)c2C1 (stereo not shown) [Compound 112, 7-(ethylsulfonyl)-3-phenyl-N-(1,3,3-trimethylbicyclo[2.2.1]heptan-2-yl)-5,6,7,8-tetrahydroimidazo[1,5-a]pyrazine-1-carboxamide] | 0.01 to 0.1
11 | CC12CCC(C1)C(C)(C)C2NC(=O)c1nc(-c2ccccc2)n2c1CN(C(=O)C1CC1)CC2 (stereo not shown) [Compound 119, 7-(cyclopropanecarbonyl)-3-phenyl-N-(1,3,3-trimethyl-bicyclo[2.2.1]heptan-2-yl)-5,6,7,8-tetrahydroimidazo[1,5-a]pyrazine-1-carboxamide] | 0.01 to 0.1
12 | CC(C)(C)C(=O)N1CCn2c(-c3ccccc3)nc(C(=O)NC3C4(C)CCC(C4)C3(C)C)c2C1 (stereo not shown) [Compound 123, 3-phenyl-7-pivaolyl-N-(1,3,3-trimethylbicyclo[2.2.1]heptan-2-yl)-5,6,7,8-tetrahydroimidazo[1,5-a]pyrazine-1-carboxamide] | 0.01 to 0.1
13 | CC(C)CCNC(=O)c1nc(-c2ccc(Cl)cc2)n2c1CN(C(=O)C1CC1)CC2 [Compound 131, 3-(4-chlorophenyl)-7-(cyclopropanecarbonyl)-N-isopentyl-5,6,7,8-tetrahydroimidazo[1,5-a]pyrazine-1-carboxamide] | 0.01 to 0.1
14 | C[C@@H](NC(=O)c1nc(-c2ccccc2)n2c1CN(C(=O)C1CC1)CC2)C1CCCCC1 [Compound 132, (R)-N-(1-cyclohexylethyl)-7-(cyclopropanecarbonyl)-3-phenyl-5,6,7,8-tetrahydroimidazo[1,5-a]pyrazine-1-carboxamide] | 0.01 to 0.1
15 | C[C@@H](NC(=O)c1nc(-c2ccccc2)n2c1CN(C(=O)C(C)(C)C)CC2)C1CCCCC1 [Compound 133, (R)-N-(1-cyclohexylethyl)-3-phenyl-7-pivaloyl-5,6,7,8-tetrahydroimidazo[1,5-a]pyrazine-1-carboxamide] | 0.01 to 0.1
16 | C[C@@H](NC(=O)c1nc(-c2ccccc2)n2c1CN(C(=O)C1CCOC1)CC2)C1CCCCC1 (stereo partly drawn) [Compound 139, N-((R)-1-cyclohexylethyl)-3-phenyl-7-(tetrahydrofuran-3-carbonyl)-5,6,7,8-tetrahydroimidazo[1,5-a]pyrazine-1-carboxamide] | 0.01 to 0.1
17 | O=C(NC1CCCCC1)c1nc(-c2ccccc2)n2c1CN(CC1CCOC1)CC2 (stereo not shown) [Compound 141, N-cyclohexyl-3-phenyl-7-((tetrahydrofuran-3-yl)methyl)-5,6,7,8-tetrahydroimidazo[1,5-a]pyrazine-1-carboxamide] | 0.01 to 0.1
18 | CC(C)CN1CCn2c(-c3ccccc3)nc(C(=O)NC3C4(C)CCC(C4)C3(C)C)c2C1 (stereo not shown) [Compound 142, 7-isobutyl-3-phenyl-N-(1,3,3-trimethylbicyclo[2.2.1]heptan-2-yl)-5,6,7,8-tetrahydroimidazo[1,5-a]pyrazine-1-carboxamide] | 0.01 to 0.1
19 | CC12CCC(C1)C(C)(C)C2NC(=O)c1nc(-c2ccccc2)n2c1CN(CCO)CC2 (stereo not shown) [Compound 143, 7-(2-hydroxyethyl)-3-phenyl-N-(1,3,3-trimethylbicyclo[2.2.1]heptan-2-yl)-5,6,7,8-tetrahydroimidazo[1,5-a]pyrazine-1-carboxamide] | 0.01 to 0.1
20 | CCN1CCn2c(-c3ccccc3)nc(C(=O)NC3C4(C)CCC(C4)C3(C)C)c2C1 (stereo not shown) [Compound 144, 7-ethyl-3-phenyl-N-(1,3,3-trimethylbicyclo[2.2.1]heptan-2-yl)-5,6,7,8-tetrahydroimidazo[1,5-a]pyrazine-1-carboxamide] | 0.0001 to 0.01
21 | CC(C)CN1CCn2c(-c3ccccc3)nc(C(=O)N[C@@H](C)c3ccccc3)c2C1 [Compound 145, (S)-7-isobutyl-3-phenyl-N-(1-phenylethyl)-5,6,7,8-tetrahydroimidazo[1,5-a]pyrazine-1-carboxamide] | 0.01 to 0.1
22 | CNC(=O)[C@@H](NC(=O)c1nc(-c2ccccc2)n2c1CN(CC(C)C)CC2)C(C)(C)C [Compound 148, (S)-N-(3,3-dimethyl-1-(methylamino)-1-oxobutan-2-yl)-7-isobutyl-3-phenyl-5,6,7,8-tetrahydroimidazo[1,5-a]pyrazine-1-carboxamide] | 0.01 to 0.1
